Drawing on patent US8642788B2, “Activators of executioner procaspases 3, 6 and 7” (The Regents of the University of California, priority 2008, dated 2014), this text covers EC50 for 20 molecules.

Assay type in all cases: biochemical
Experiment [1] addresses T1, procaspase-6 (Homo sapiens, UniProt P55212).
T1 sequence (P55212 1-293): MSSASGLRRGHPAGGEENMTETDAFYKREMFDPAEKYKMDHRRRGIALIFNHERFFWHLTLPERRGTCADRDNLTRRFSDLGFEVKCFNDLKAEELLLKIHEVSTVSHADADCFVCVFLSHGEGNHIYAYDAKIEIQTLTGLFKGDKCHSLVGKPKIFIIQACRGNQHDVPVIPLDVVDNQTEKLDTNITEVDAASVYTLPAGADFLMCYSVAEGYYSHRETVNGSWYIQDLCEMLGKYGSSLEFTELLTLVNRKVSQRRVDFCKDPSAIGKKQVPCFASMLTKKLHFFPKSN
In words: Executioner procaspase-6 activation assay (Ac-VEID-AFC fluorogenic substrate). The following applies: incubation with compound for 5 h at 37° C.; 100 nM procaspase. The method, boiled down:
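Procaspase at 100 nM incubated with compound (100 nM–100 μM) in 50 mM HEPES pH 7.4, KCl, DTT, 0.01% Triton X-100, 3% DMSO, 37 °C for 5 h; then 25 μM Ac-DEVD-AFC (procaspase-7) or Ac-VEID-AFC (procaspase-6), kinetic fluorescence 30 min (ex 365/em 495); EC50 reported.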

Experiment [2] deals with T2, procaspase-3 (Homo sapiens, UniProt P42574).
T2 construct: His6 (C); made in house; host or cells: E. coli BL21(DE3)RP, pET-23b
T2 sequence (P42574 1-277): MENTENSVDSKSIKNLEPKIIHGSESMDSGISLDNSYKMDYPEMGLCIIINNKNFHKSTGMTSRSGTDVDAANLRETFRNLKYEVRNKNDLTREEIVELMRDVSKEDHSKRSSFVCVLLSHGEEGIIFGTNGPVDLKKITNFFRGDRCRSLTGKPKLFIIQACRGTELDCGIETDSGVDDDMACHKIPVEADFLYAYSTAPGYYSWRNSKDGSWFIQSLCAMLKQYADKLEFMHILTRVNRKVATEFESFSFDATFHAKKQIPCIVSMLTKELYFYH
The experiment in a line: Executioner procaspase-3 activation assay (Ac-DEVD-AFC fluorogenic substrate). The method, boiled down:
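Procaspase-3 at 100 nM was incubated with activating compounds (100 nM to 100 uM) in 50 mM HEPES pH 7.4, 50 mM KCl, 1 mM DTT and 0.01% Triton-X100, the detergent limiting aggregation artefacts. Protein, substrate and inhibitor were kept as frozen aliquots and thawed just before use.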

Experiment [3] has as its target T3, procaspase-7 (Homo sapiens, UniProt P55210).
T3 construct: His6 (C); made in house; host or cells: E. coli BL21(DE3)RP, pET-21b
T3 sequence (P55210 1-303): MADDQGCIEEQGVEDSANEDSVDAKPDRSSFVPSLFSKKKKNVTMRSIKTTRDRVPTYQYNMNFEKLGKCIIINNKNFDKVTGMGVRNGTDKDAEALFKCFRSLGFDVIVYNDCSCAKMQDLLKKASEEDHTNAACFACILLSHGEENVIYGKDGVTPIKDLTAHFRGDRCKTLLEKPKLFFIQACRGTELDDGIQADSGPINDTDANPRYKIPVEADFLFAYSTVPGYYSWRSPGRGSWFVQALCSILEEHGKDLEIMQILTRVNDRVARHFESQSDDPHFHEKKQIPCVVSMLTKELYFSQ
In words: Executioner procaspase-7 activation assay (Ac-DEVD-AFC fluorogenic substrate). The following applies: incubation with compound for 5 h at 37° C.; 100 nM procaspase. The protocol: The executioner procaspase-3, -6 and -7 activation assay protocol involves incubating the target protein at the physiologically-relevant concentration of 100 nM with activating compounds (ranging from 100 nM to 100 uM) in a total volume of 50 μL consisting of a reaction buffer of 50 mM HEPES, pH 7.4, 50 mM KCl, 1 mM DTT and 0.01% Triton-X100 (to reduce false positive hits due to compound aggregation). The procaspase/small molecule incubations are then agitated at 37° C. and assayed at various time points by addition of the fluorogenic peptide substrate 7-Amino-4-trifluoromethylcoumarin-DEVD (Ac-DEVD-AFC) (procaspases-3, -7) or Ac-VEID-AFC (procaspase-6) to a final concentration of 25 μM and analyzed by a kinetic 30 minute assay (excitation 365 nm and emission 495 nm). The final concentration of DMSO in each well is 3% and has no effect on enzyme stability or activity. […] All components of the assay including protein, substrate and inhibitor are stored as frozen aliquots and thawed immediately prior to the assay.
Tables 1 and 2. Procaspase activation as a result of incubation with compound for 5 h at 37° C. (+++ EC50˜0.5-10 μM; ++ EC50˜10-50 μM; + EC50˜50-200 μM; -no activation observed; ND not determined).

Setting [4] is: incubation with compound for 5 h at 37° C., 100 nM procaspase, read-out: Procaspase Activation 3.

Each structure is given as a SMILES string. Where two headings read alike, the source gives them in different places. Some results are limits rather than exact numbers.

For `COc1ccc2cc(-c3cccc(NC(=O)c4cc5cccc(O)c5oc4=O)c3)ccc2c1` [compound 77, 8-Hydroxy-2-oxo-2H-chromene-3-carboxylic acid [3-(6-methoxy-naphthalen-2-yl)-phenyl]-amide], the EC50 was greater than 100 µM in experiment [1], greater than 100 µM in experiment [2] (setting [4]) and 0.5 to 10 µM in experiment [3].

As to `COc1ccc2cc(-c3cccc(NC(=O)c4cc5cccc(OC)c5oc4=O)c3)ccc2c1` [compound 78, 8-Methoxy-2-oxo-2H-chromene-3-carboxylic acid [3-(6-methoxy-naphthalen-2-yl)-phenyl]-amide], the EC50 in experiment [1], in experiment [2] (setting [4]) and in experiment [3] was greater than 100 µM throughout.

`COc1ccc2cc(-c3cccc(NC(=O)c4cc5cccc(OC(F)(F)F)c5oc4=O)c3)ccc2c1` [compound 79, 8-Trifluoromethoxy-2-oxo-2H-chromene-3-carboxylic acid [3-(6-methoxy-naphthalen-2-yl)-phenyl]-amide]: the EC50 in experiment [1], in experiment [2] (setting [4]) and in experiment [3] was greater than 100 µM throughout.

`O=C(Nc1cccc(-c2ccc3ccccc3c2)c1)c1cc2cccc(O)c2oc1=O` [compound 80, 8-Hydroxy-2-oxo-2H-chromene-3-carboxylic acid (3-Naphthalen-2-yl-phenyl)-amide]: the EC50 in experiment [1], in experiment [2] (setting [4]) and in experiment [3] was greater than 100 µM throughout.

As to `COc1cccc2cc(C(=O)Nc3cccc(-c4ccc5ccccc5c4)c3)c(=O)oc12` [compound 81, 8-Methoxy-2-oxo-2H-chromene-3-carboxylic acid (3-Naphthalen-2-yl-phenyl)-amide], the EC50 in experiment [1], in experiment [2] (setting [4]) and in experiment [3] was greater than 100 µM each time.

As to `O=C(Nc1cccc(-c2ccc3ccccc3c2)c1)c1cc2cccc(OC(F)(F)F)c2oc1=O` [compound 82, 8-Trifluoromethoxy-2-oxo-2H-chromene-3-carboxylic acid (3-Naphthalen-2-yl-phenyl)-amide], the EC50 in experiment [1], in experiment [2] (setting [4]) and in experiment [3] was greater than 100 µM each time.

`O=C(Nc1cccc(-c2cnc3ccccc3c2)c1)c1cc2cccc(O)c2oc1=O` [compound 83, 8-Hydroxy-2-oxo-2H-chromene-3-carboxylic acid [3-Quinolin-3-yl-phenyl]-amide]: the EC50 in experiment [1], in experiment [2] (setting [4]) and in experiment [3] was greater than 100 µM throughout.

For `COc1cccc2cc(C(=O)Nc3cccc(-c4cnc5ccccc5c4)c3)c(=O)oc12` [compound 84, 8-Methoxy-2-oxo-2H-chromene-3-carboxylic acid [3-Quinolin-3-yl-phenyl]-amide], the EC50 in experiment [1], in experiment [2] (setting [4]) and in experiment [3] was greater than 100 µM throughout.

For the molecule `O=C(Nc1cccc(-c2cnc3ccccc3c2)c1)c1cc2cccc(OC(F)(F)F)c2oc1=O` [compound 85, 8-Trifluoromethoxy-2-oxo-2H-chromene-3-carboxylic acid [3-Quinolin-3-yl-phenyl]-amide], the EC50 in experiment [1], in experiment [2] (setting [4]) and in experiment [3] was greater than 100 µM in each case.

For the molecule `O=C(Nc1cccc(-c2ccc3c(c2)OCCO3)c1)c1cc2cccc(O)c2oc1=O` [compound 86, 8-Hydroxy-2-oxo-2H-chromene-3-carboxylic acid [3-(2,3-dihydro-benzo[1,4]dioxin-6-yl)-phenyl]-amide], the EC50 in experiment [1], in experiment [2] (setting [4]) and in experiment [3] was greater than 100 µM in each case.

For `COc1cccc2cc(C(=O)Nc3cccc(-c4ccc5c(c4)OCCO5)c3)c(=O)oc12` [compound 87, 8-Methoxy-2-oxo-2H-chromene-3-carboxylic acid [3-(2,3-dihydro-benzo[1,4]dioxin-6-yl)-phenyl]-amide], the EC50 in experiment [1], in experiment [2] (setting [4]) and in experiment [3] was greater than 100 µM each time.

As for `O=C(Nc1cccc(-c2ccc3c(c2)OCCO3)c1)c1cc2cccc(OC(F)(F)F)c2oc1=O` [compound 88, 8-Trifluoromethoxy-2-oxo-2H-chromene-3-carboxylic acid [3-(2,3-dihydro-benzo[1,4]dioxin-6-yl)-phenyl]-amide], the EC50 in experiment [1], in experiment [2] (setting [4]) and in experiment [3] was greater than 100 µM each time.

As to `N#Cc1ccccc1-c1cccc(NC(=O)c2cc3cccc(O)c3oc2=O)c1` [compound 89, 8-Hydroxy-2-oxo-2H-chromene-3-carboxylic acid (2′-cyano-biphenyl-3-yl)-amide], the EC50 in experiment [1], in experiment [2] (setting [4]) and in experiment [3] was greater than 100 µM each time.

Take `COc1cccc2cc(C(=O)Nc3cccc(-c4ccccc4C#N)c3)c(=O)oc12` [compound 90, 8-Methoxy-2-oxo-2H-chromene-3-carboxylic acid (2′-cyano-biphenyl-3-yl)-amide]: the EC50 in experiment [1], in experiment [2] (setting [4]) and in experiment [3] was greater than 100 µM each time.

`N#Cc1ccccc1-c1cccc(NC(=O)c2cc3cccc(OC(F)(F)F)c3oc2=O)c1` [compound 91, 8-Trifluoromethoxy-2-oxo-2H-chromene-3-carboxylic acid (2′-cyano-biphenyl-3-yl)-amide]: the EC50 in experiment [1], in experiment [2] (setting [4]) and in experiment [3] was greater than 100 µM throughout.

Take `O=C(Nc1cccc(-c2ccc3[nH]ccc3c2)c1)c1cc2cccc(O)c2oc1=O` [compound 92, 8-Hydroxy-2-oxo-2H-chromene-3-carboxylic acid (3-(1H-Indol-5-yl)-phenyl)-amide]: the EC50 in experiment [1], in experiment [2] and in experiment [3] was greater than 100 µM throughout.

As for `COc1cccc2cc(C(=O)Nc3cccc(-c4ccc5[nH]ccc5c4)c3)c(=O)oc12` [compound 93, 8-Methoxy-2-oxo-2H-chromene-3-carboxylic acid (3-(1H-Indol-5-yl)-phenyl)-amide], the EC50 in experiment [1], in experiment [2] and in experiment [3] was greater than 100 µM in each case.

As for `O=C(Nc1cccc(-c2ccc3[nH]ccc3c2)c1)c1cc2cccc(OC(F)(F)F)c2oc1=O` [compound 94, 8-Trifluoromethoxy-2-oxo-2H-chromene-3-carboxylic acid (3-(1H-Indol-5-yl)-phenyl)-amide], the EC50 in experiment [1], in experiment [2] and in experiment [3] was greater than 100 µM in each case.

For the molecule `CC(=O)Nc1ccccc1-c1cccc(NC(=O)c2cc3cccc(O)c3oc2=O)c1` [compound 95, 8-Hydroxy-2-oxo-2H-chromene-3-carboxylic acid (2′-acetylamino-biphenyl-3-yl)-amide], the EC50 in experiment [1], in experiment [2] (setting [4]) and in experiment [3] was greater than 100 µM each time.

Regarding `COc1cccc2cc(C(=O)Nc3cccc(-c4ccccc4NC(C)=O)c3)c(=O)oc12` [compound 96, 8-Methoxy-2-oxo-2H-chromene-3-carboxylic acid (2′-acetylamino-biphenyl-3-yl)-amide], the EC50 in experiment [1], in experiment [2] (setting [4]) and in experiment [3] was greater than 100 µM each time.
